Reference: ChEMBL document CHEMBL1201862, “PubChem BioAssay data set” (2004)
Blank lines part the entries; values can stand above or below the compound they belong to. Activity calls are given as the source filed them.

Tests used:
[1] = target: T1, Neuropeptide Y receptor type 1 (Homo sapiens, UniProt P25929); format: functional;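 further: HEK293 cells with a CNG channel challenged with NPY then isoproterenol; potency as antagonist that reverses NPY suppression of cAMP signal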
T1 sequence (P25929 whole entry): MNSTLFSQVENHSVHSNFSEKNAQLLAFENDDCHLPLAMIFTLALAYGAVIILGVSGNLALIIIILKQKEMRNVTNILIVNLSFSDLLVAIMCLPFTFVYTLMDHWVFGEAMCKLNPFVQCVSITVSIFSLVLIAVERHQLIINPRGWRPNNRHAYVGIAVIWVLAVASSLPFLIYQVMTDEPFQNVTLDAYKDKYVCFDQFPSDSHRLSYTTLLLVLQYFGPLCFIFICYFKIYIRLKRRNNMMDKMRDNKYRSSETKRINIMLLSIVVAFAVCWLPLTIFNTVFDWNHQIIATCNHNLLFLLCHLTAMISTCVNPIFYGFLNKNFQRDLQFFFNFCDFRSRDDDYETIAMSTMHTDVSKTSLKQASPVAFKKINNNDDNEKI

[2] = target: T2, Neuropeptide Y receptor type 2 (Homo sapiens, UniProt P49146); format: functional, cell-based;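 further: HEK293 cells expressing the receptor and a CNG channel; stimulus was NPY near EC95 followed by isoproterenol to raise cAMP; antagonist potency measured as restoring cAMP signal that NPY suppresses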
T2 sequence (P49146 whole entry): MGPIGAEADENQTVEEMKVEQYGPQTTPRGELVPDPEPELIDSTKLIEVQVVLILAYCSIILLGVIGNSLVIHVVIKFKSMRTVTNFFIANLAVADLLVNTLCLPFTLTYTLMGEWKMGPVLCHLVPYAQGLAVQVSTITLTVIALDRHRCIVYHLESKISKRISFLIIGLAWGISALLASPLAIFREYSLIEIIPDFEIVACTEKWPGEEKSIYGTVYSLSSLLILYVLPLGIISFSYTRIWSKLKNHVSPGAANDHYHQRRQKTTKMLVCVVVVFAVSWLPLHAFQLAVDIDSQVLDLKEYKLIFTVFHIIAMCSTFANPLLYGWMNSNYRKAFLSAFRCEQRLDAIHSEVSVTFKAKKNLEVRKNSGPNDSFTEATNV

[3] = target: Epstein-Barr nuclear antigen 1 (Epstein-Barr virus (strain B95-8) (HHV-4) (Human herpesvirus 4), UniProt P03211); test: EBNA-1 inhibitors, dose response, biochemical, fluorescence polarization, 1536-well (AID 2381); parameters: species or system human gammaherpesvirus 4;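 further: fluorescence polarization of a Cy5 DNA probe bound by EBNA-1 protein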
[4] = target: Lytic switch protein BZLF1 (Epstein-Barr virus (strain B95-8) (HHV-4) (Human herpesvirus 4), UniProt P03206); test: EBV ZTA inhibitors, dose response, counter-screen for EBNA-1 inhibitor project, biochemical, fluorescence polarization, Epstein-Barr virus, 1536-well (AID 2377); parameters: species or system human gammaherpesvirus 4;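 further: fluorescence polarization of Cy5-labelled ZRE DNA probe bound by purified Zta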
[5] = NIH-3T3 fibroblast cytotoxicity, dose response, cytotoxicity control, cell-based, fluorescence, Alamar Blue, secondary assay (AID 2327); format: functional;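 further: NIH-3T3 mouse fibroblasts cultured with fluconazole at 8 µg/mL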
BJ [6] = test: cytotoxicity toward BJ-TERT fibroblasts, dose response, cell-based, RAS-independent, luminescence (AID 1933); format: functional; details: Homo sapiens
BJ [7] = test: cells; format: functional, cell-based; details: Homo sapiens
[8] = C. albicans growth with fluconazole, confirmation, fluorescence, retest (AID 2467); format: functional, cell-based
[9] = inhibitors of intracellular T. cruzi replication, confirmation, NIH3T3 host cells, beta-gal luminescence (AID 2044); format: functional, cell-based;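 further: intracellular parasites grown in NIH/3T3 mouse fibroblasts as host cells; luminescent beta-galactosidase reporter signal from transgenic T. cruzi replicating inside host cells; inhibitors lower the luminescence signal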
[10] = cytotoxicity toward NIH3T3 fibroblasts, dose response, counter-screen, cell-based, ATP luminescence, mouse fibroblasts (AID 2010); format: functional;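 further: cells exposed to compound for about 90 hours before reading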
BJ [11] = test: cytotoxicity toward BJ-TERT-LT-ST fibroblasts, dose response, cell-based, RAS-independent, luminescence (AID 1935); format: functional; details: Homo sapiens;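 further: BJ fibroblasts immortalized with TERT plus LT and ST oncogenes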
[12] = cytotoxicity toward DRD oncogenic fibroblasts, dose response, cell-based, non-viral oncogenic, luminescence (AID 1934); format: functional; details: Homo sapiens
[13] = cytotoxicity in HEK-293T cells, dose response, cytotoxicity control for TCR NF-kB inhibitor project, luminescence, T-cell screen hits (AID 489026); format: functional, cell-based;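 further: cells exposed to compound about 14 hours before the viability readout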
Cytochrome P450 2C9 = Cytochrome P450 2C9 (Homo sapiens, UniProt P11712)
[14] = target: T3, Induced myeloid leukemia cell differentiation protein Mcl-1 (Homo sapiens, UniProt Q07820); test: MCL1-BIM BH3 interaction inhibitors, dose response, biochemical, fluorescence polarization, BIM-BH3 peptide, 1536-well (AID 2217)
Bcl-2-like protein 1 = Bcl-2-like protein 1 (Homo sapiens, UniProt Q07817); test: BCL-XL inhibitors, dose response, selectivity assay for MCL1 inhibitor project, biochemical, fluorescence polarization, 1536-well (AID 2218)
[15] = target: T3, Induced myeloid leukemia cell differentiation protein Mcl-1; format: functional
Cytochrome P450 2C19 = Cytochrome P450 2C19 (Homo sapiens, UniProt P33261); test: Cytochrome panel assay with activity outcomes. Panel member name: p450-cyp2c19 Compounds with AC50 equal or less than 10 uM are considered active; format: functional; details: read-out: AC50
Cytochrome P450 2D6 = Cytochrome P450 2D6 (Homo sapiens, UniProt P10635);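 further: CYP2D6 member of a cytochrome P450 panel assay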
Cytochrome P450 1A2 = target: T4, Cytochrome P450 1A2 (Homo sapiens, UniProt P05177);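 further: PubChem cytochrome P450 panel assay, CYP1A2 panel member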
T4 sequence (P05177 whole entry): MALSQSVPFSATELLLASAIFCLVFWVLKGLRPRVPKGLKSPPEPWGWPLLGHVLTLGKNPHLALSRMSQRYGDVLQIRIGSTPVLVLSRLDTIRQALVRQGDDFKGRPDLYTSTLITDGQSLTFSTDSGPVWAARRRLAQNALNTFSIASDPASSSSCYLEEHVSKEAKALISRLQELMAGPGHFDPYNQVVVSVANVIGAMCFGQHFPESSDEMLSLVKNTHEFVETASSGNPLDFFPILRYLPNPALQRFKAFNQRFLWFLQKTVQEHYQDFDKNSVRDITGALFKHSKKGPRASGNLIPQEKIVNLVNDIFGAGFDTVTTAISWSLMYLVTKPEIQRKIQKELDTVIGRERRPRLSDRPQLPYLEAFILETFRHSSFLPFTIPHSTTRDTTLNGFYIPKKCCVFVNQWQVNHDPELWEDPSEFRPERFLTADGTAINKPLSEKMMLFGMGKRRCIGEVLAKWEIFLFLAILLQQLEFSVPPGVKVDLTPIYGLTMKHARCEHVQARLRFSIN

Cytochrome P450 3A4 = Cytochrome P450 3A4 (Homo sapiens, UniProt P08684);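 further: CYP3A4 tested as one member of a cytochrome P450 panel screen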
[16] = target: T5, Microphthalmia-associated transcription factor (Homo sapiens, UniProt O75030); test: TRPM1 promoter luciferase signal decrease, dose response, MITF inhibitor project, cell-based, SK-MEL-5, cherry-picked, set 3 (AID 493073); format: functional
T5 sequence (O75030 whole entry): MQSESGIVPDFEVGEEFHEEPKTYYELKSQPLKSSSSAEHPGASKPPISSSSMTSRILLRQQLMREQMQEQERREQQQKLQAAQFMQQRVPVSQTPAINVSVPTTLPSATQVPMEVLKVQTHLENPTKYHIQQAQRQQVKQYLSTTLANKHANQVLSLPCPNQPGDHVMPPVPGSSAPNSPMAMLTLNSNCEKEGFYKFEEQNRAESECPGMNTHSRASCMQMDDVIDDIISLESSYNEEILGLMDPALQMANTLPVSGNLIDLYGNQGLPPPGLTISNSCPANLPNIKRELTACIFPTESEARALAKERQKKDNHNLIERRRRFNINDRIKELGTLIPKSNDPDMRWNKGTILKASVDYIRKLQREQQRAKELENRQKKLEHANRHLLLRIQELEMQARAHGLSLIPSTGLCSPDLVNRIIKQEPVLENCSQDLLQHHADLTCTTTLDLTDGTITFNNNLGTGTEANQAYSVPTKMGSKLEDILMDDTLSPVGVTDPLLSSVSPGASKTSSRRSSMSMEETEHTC

[17] = target: T6, RNA-binding protein pos-1 (Caenorhabditis elegans, UniProt G5EF15); test: inhibitors of POS-1/mex-3 RNA binding, dose response, biochemical, fluorescence polarization (AID 1964);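 further: purified POS-1 fused to maltose binding protein made in E. coli; potency of compounds blocking POS-1 binding to fluorescent RNA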
T6 sequence (G5EF15 whole entry): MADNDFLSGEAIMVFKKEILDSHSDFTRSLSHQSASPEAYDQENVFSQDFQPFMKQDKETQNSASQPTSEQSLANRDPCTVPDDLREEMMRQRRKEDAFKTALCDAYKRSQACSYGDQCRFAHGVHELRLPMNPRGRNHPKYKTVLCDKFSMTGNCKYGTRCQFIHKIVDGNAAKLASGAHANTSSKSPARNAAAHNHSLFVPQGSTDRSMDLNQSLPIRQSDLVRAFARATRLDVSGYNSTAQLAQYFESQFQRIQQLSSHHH

[18] = target: T7, Zinc finger protein mex-5 (Caenorhabditis elegans, UniProt Q9XUB2); test: MEX-5/TCR-2 RNA interaction inhibitors, dose response, biochemical, C. elegans, fluorescence polarization (AID 1960)
T7 sequence (Q9XUB2 whole entry): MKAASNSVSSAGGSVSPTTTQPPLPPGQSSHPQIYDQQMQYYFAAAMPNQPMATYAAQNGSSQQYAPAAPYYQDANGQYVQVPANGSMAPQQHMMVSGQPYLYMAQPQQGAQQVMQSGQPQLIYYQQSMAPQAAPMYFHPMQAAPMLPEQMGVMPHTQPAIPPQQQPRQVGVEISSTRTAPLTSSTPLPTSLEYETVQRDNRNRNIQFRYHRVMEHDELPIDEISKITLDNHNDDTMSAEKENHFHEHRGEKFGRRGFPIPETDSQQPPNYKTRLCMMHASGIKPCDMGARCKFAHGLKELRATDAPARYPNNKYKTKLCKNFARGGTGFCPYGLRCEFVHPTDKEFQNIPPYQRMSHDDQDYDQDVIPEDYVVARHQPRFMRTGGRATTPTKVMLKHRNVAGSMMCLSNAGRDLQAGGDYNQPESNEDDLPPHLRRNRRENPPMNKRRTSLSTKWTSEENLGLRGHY

Genome polyprotein = Genome polyprotein (dengue virus type 2, UniProt P29990); test: Dengue-2 NS5 methyltransferase inhibitors, primary screen, biochemical, confirmation dose response (AID 588689); format: functional
Chain of Genome polyprotein (P29990 2492-3391 limits assumed): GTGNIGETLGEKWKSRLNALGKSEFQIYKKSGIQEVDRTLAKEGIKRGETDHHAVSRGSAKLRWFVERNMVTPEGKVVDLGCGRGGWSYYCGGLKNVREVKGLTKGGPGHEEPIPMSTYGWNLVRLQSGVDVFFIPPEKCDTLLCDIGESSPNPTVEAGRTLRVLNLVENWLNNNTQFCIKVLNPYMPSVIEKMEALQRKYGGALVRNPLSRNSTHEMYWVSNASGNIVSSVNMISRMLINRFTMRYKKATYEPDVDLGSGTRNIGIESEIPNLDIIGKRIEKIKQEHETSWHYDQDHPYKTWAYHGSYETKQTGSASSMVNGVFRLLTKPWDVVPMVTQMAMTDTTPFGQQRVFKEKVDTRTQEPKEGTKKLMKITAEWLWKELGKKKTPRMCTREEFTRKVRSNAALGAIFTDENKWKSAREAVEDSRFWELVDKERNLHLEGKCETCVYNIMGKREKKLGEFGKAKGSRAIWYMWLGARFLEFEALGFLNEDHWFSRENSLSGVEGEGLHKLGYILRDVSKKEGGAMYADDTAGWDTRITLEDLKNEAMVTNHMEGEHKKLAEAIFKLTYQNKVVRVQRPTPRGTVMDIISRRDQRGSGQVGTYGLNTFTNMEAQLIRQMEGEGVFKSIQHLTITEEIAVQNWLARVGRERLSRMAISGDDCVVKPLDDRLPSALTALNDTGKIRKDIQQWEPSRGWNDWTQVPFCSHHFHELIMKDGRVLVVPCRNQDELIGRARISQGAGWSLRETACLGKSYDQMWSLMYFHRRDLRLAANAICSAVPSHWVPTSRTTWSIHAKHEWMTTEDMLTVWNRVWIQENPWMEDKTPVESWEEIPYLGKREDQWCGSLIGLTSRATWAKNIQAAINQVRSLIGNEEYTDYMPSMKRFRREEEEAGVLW

T3 sequence (Q07820 whole entry): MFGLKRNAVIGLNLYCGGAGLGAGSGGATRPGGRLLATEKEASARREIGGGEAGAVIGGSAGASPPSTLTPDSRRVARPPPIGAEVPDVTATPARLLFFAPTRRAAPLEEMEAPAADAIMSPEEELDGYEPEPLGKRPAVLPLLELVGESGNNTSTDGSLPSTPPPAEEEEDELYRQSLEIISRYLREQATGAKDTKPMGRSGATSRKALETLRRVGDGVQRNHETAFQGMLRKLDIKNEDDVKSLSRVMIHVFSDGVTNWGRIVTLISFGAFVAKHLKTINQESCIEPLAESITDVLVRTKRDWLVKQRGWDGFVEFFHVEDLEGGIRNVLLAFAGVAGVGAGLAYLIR
Chain of Bcl-2-like protein 1 (Q07817 whole entry): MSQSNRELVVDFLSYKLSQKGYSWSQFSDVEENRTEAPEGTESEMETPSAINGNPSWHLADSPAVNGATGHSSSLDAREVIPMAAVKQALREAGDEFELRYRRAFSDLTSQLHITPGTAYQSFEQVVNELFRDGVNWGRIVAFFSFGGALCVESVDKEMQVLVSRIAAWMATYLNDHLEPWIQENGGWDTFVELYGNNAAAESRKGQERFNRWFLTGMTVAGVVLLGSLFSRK
Chain of Cytochrome P450 2D6 (P10635 whole entry): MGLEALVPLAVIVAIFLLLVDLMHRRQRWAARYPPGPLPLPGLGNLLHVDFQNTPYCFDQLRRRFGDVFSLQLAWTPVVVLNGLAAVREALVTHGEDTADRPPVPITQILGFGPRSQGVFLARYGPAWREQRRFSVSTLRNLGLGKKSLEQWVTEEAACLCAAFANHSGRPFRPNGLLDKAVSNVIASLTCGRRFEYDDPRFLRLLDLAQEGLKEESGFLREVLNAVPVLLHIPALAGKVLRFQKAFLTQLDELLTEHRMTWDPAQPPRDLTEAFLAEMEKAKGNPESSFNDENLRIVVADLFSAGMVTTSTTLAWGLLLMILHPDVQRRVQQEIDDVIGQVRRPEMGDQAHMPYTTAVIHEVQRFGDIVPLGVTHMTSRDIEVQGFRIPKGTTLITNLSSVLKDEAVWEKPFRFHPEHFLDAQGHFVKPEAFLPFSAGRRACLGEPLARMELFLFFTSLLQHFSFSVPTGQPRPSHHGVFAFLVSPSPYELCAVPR
Chain of Lytic switch protein BZLF1 (P03206 whole entry): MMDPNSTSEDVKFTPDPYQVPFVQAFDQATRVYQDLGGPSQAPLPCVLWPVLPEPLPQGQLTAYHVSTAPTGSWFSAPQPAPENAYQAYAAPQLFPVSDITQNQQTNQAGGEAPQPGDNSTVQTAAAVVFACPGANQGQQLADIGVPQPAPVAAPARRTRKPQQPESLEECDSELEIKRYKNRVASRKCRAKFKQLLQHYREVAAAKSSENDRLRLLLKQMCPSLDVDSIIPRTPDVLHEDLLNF
Chain of Cytochrome P450 3A4 (P08684 whole entry): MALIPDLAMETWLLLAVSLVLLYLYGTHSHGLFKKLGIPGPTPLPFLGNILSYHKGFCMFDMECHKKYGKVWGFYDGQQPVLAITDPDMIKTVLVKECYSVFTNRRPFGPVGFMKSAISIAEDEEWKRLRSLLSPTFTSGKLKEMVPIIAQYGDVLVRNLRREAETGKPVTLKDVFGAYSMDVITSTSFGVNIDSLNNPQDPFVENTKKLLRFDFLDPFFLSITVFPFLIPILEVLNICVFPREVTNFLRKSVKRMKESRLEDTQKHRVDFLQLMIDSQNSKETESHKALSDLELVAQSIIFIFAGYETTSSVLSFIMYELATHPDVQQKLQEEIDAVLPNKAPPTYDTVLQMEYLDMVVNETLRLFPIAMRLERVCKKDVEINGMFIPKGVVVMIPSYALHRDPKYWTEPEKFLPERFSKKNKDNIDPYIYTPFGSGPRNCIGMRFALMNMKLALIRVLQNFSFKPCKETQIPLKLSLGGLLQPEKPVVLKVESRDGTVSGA
Chain of Cytochrome P450 2C19 (P33261 whole entry): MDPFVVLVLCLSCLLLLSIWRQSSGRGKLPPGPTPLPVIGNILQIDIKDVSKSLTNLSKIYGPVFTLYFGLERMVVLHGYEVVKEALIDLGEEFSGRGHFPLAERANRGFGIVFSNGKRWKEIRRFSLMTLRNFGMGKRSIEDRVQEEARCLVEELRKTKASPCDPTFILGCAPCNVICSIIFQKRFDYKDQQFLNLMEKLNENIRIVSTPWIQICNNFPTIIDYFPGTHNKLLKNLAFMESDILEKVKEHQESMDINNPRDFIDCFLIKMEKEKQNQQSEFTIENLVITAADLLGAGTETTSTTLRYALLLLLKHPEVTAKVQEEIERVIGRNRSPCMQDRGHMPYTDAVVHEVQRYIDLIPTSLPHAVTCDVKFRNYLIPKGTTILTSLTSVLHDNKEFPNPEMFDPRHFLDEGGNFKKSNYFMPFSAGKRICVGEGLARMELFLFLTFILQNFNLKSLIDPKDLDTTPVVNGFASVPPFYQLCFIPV
Chain of Cytochrome P450 2C9 (P11712 whole entry): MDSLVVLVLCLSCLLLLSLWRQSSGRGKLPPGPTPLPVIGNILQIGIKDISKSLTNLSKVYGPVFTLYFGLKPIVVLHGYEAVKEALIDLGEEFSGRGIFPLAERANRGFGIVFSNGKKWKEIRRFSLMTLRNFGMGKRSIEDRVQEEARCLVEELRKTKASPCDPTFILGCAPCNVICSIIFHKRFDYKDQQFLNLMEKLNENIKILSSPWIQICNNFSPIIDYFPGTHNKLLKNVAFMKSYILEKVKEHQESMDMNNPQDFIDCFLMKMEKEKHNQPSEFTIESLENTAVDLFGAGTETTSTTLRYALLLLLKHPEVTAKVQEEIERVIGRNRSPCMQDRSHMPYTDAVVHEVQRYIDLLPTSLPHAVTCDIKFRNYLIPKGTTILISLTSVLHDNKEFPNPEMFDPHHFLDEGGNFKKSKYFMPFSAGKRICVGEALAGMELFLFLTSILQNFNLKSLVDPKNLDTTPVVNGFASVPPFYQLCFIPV
Chain of Epstein-Barr nuclear antigen 1 (P03211 whole entry): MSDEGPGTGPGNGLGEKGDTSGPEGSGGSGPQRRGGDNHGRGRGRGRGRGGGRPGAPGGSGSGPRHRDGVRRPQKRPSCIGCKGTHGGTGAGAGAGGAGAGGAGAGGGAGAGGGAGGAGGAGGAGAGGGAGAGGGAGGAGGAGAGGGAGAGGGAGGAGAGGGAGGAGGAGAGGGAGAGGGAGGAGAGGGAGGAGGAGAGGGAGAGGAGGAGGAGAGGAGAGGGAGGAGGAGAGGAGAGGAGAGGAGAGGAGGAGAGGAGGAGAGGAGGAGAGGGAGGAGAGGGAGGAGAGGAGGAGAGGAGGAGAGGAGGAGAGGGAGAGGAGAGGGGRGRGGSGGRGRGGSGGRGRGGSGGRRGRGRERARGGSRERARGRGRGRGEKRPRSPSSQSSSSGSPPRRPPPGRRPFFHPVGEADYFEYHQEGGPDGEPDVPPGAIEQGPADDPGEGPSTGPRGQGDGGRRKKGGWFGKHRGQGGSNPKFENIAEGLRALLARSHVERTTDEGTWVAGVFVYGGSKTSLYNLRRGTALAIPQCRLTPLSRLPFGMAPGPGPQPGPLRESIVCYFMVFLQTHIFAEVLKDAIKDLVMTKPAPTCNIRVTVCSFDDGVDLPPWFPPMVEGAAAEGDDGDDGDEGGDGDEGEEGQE

SMILES: CCSc1nc2ccc(OC)cc2cc1C#N
IC50 [1]: 11.1 µM (not active)
IC50 [2]: 17.8 µM (not active)

SMILES: COc1ccc2oc(C(=O)OCC(=O)Nc3ccc(NC(C)=O)cc3)c(C)c2c1
IC50 [3]: 4.71 µM (active)
IC50 [4]: > 111 µM (not active)

SMILES: Cc1ccc2c(c1)sc(-c1ccc(N(C)C)cc1)[n+]2C
EC50 [5]: > 160 µM (inactive)
EC50 (BJ [6]): 3.83 µM (active)
EC50 (BJ [7]): 0.609 µM (active)
EC50 [8]: 0.039 µM (active)
EC50 [9]: < 0.1 µM (active)
EC50 [10]: > 60 µM (not active)
EC50 (BJ [11]): 20.9 µM (inconclusive)
EC50 [12]: 14.5 µM (active)
IC50 [13]: > 80 µM (inactive)
EC50 (cells): < 0.004 µM (active)

SMILES: C/C(=N/NC(=O)C(O)(c1ccccc1)c1ccccc1)c1ccc([N+](=O)[O-])o1
EC50 [9]: < 0.1 µM (active)
EC50 [10]: > 60 µM (not active)
AC50 [16]: 9.84 µM (active)
EC50 (cells): 0.222 µM (active)

Now from value to compound:

IC50 [1]: 6.96 µM (active)
IC50 [2]: 8.09 µM (active)
AC50 (Cytochrome P450 2C9): 7.94 µM (inconclusive)
SMILES: Clc1ccccc1CSc1nnc(/C=C/c2ccccc2)o1

IC50 [14]: > 36.3 µM (not active)
IC50 (Bcl-2-like protein 1): > 109 µM (not active)
IC50 [15]: 3.25 µM (active)
AC50 (Cytochrome P450 2C19): 2.51 µM (inconclusive)
AC50 (Cytochrome P450 2D6): 14.1 µM (inconclusive)
AC50 (Cytochrome P450 1A2): 5.01 µM (inconclusive)
AC50 (Cytochrome P450 3A4): 1 µM (inconclusive)
SMILES: O=C(N/N=C/c1ccncc1)c1cc([N+](=O)[O-])cc([N+](=O)[O-])c1O

EC50 [17]: 12.9 µM (active)
EC50 [18]: 0.193 µM (active)
IC50 [14]: 2.07 µM (active)
IC50 (Bcl-2-like protein 1): > 109 µM (not active)
IC50 (Genome polyprotein): > 100 µM (active)
SMILES: Cc1nc2ccccc2c(=O)n1/N=C/c1ccc(O)c(O)c1O
